Results on seven compounds are retold here after patent publication US20250101032A1, “EXATECAN DERIVATIVES AND ANTIBODY-DRUG CONJUGATES THEREOF” (priority 2021, published 2025).

Converted amounts (≈) assume the structure as drawn. Where two headings read alike, the source gives them in different places.

The test system of series [1] is SKBR3. Put plainly: In vitro cytotoxicity assay (CellTiter-Glo), SKBR3. The class given is cell-based, Human. Particulars: read-out: Cytotoxicity IC50. As for the experimental part: (§1) Human tumor cell lines, SK-BR-3, NCI-H292, HT-29, MCF-7, NCI-N87, and FaDu were obtained from ATCC. NCI-H292, HT-29, MCF-7, and NCI-N87 cells were cultured in RPMI-1640 media (Gibco, Life Technologies) supplemented with 10% v/v heat inactivated FBS (Corning), FaDu cells were maintained in DMEM media (Gibco, Life Technologies) supplemented with 10% v/v heat inactivated FBS (Corning). SK-BR-3 cells were maintained in McCoys 5A medium (Gibco, Life Technologies) supplemented with 10% […] heat inactivated FBS (Corning) at 37° C. in a humidified incubator containing 5% CO2.
(§2) Lyophilized compounds were dissolved in 100% dry DMSO, aliquots frozen and stored at −80° C. Concentration and purity of compound stock solutions in DMSO were determined by RP-HPLC Agilent 1100 platform with 1200 DAD and SofTA ELSD detectors, and the Agilent 6150 MS system (UV/VIS, ELSD purity and MS compound identity confirmation). Shimadzu 3.0 mm×30 mm XR ODS 2.2 μm column was run at 50° C., 1.5 mL/min. Solvent A: 0.1% Formic acid in water, Solvent B: 0.08% Formic acid in methanol-Gradient: 5%-100% B in 3.0 min, 100% solvent B for 0.3 min. Concentration of compounds in 100% DMSO determined by ELS ranged from 1-6 mM.
(§3) Cells were plated in 96-well white flat-bottomed plates (Corning) at 2.0×10^3 cells per well in 100 μL culture medium. After incubation for 24 hours, test compounds were added at a range of concentrations as ten point serial dilution as duplicates or triplicates. Following further incubation for 6 days 37° C., 5% CO2, cell viability was assessed with the use of a CellTiter-Glo Luminescent Cell Viability Assay (Promega). Luminescence was measured using the GloMax instrument (Promega). […] For a subset of payloads, each treatment was independently repeated two to eight times, and IC50 values were averaged. […] Standard deviation (stdev) is shown as (N/A) for treatment performed once.
(In general: ATP-based viability assays read luminescence as a measure of living cells.)

For series [2], the system named is HT29. Put plainly: In vitro cytotoxicity assay (CellTiter-Glo), HT29. The class given is cell-based, Human. The following applies: read-out: Cytotoxicity IC50. As for the experimental part:
as §1, §2, §3

Series [3] has as its system NCI-H292. Kind of series: In vitro cytotoxicity assay (CellTiter-Glo), NCI-H292. The class given is cell-based, Human. Particulars: read-out: Cytotoxicity IC50. As for the experimental part:
as §1, §2, §3

The test system of series [4] is MCF7. Put plainly: In vitro cytotoxicity assay (CellTiter-Glo), MCF7. The class given is cell-based, Human. The following applies: read-out: Cytotoxicity IC50. As for the experimental part: as §1, §2, §3
Series [5] has as its system NCI-N87. Kind of series: In vitro cytotoxicity assay (CellTiter-Glo), NCI-N87. The class given is cell-based, Human. Particulars: read-out: Cytotoxicity IC50. As to the method:
as §1, §2, §3

In series [6] the test system is FaDu. Put plainly: In vitro cytotoxicity assay (CellTiter-Glo), FaDu. The class given is cell-based, Human. The following applies: read-out: Cytotoxicity IC50. As for the experimental part:
as §1, §2, §3

Series [7] relates to SKOV3. Put plainly: In vitro cytotoxicity assay (CellTiter-Glo), SKOV3. The class given is cell-based. Particulars: read-out: Cytotoxicity IC50. As to the method:
(§4) Lyophilized compounds were dissolved in 100% dry DMSO, aliquots frozen and stored at −80° C. […] Shimadzu 3.0 mm×30 mm XR ODS 2.2 μm column was run at 50° C., 1.5 mL/min. Solvent A: 0.1% Formic acid in water, Solvent B: 0.08% Formic acid in methanol-Gradient: 5%-100% B in 3.0 min, 100% solvent B for 0.3 min.
as §3

Series [8] deals with BXPC3. Kind of series: In vitro cytotoxicity assay (CellTiter-Glo), BXPC3. The class given is cell-based. The following applies: read-out: Cytotoxicity IC50. As to the method:
as §4, §3

A short description of series [9]: physchem. Particulars: 25 °C, pH 7.4, aqueous buffer, kinetic from dmso stock. As for the experimental part:
In-vitro kinetic solubilities of the compounds in PBS pH 7.4 buffer at 25° C. were determined by diluting compounds from 100% dimethyl sulfoxide (DMSO) into PBS buffer and measuring absorbance at 490, 590 and 650 nm. Stock concentrations in 100% DMSO were provided at 1-6 mM in 100% DMSO. Kinetic solubilities were determined by diluting test compounds from 100% DMSO into PBS pH 7.4 buffer, as duplicate, 10 point 2-fold serial dilution starting at 100× dilution of stock DMS solution into PBS buffer in a clear, flat bottom polystyrene assay plates. Total assay volume was 200 microliters. Solutions were mixed by plate shaking, incubated for 30 m at 25° C., and absorbance was read at 490, 590 and 650 nm. […] in PBS buffer was used as a blank. For each test compound, average optical density (GD) at each concentration was determined by averaging the blank corrected sum of absorption at 490 nm, 590 nm and 650 nm, over duplicate measurements. Turbidity threshold optical density value was set as a sum of mean plus two standard deviations of the mean of absorbances at 490, 590 and 650 nm for 1% (v/v) DMSO in PBS pH 7.4 buffer. Highest soluble concentration (micromolar) corresponded to the highest concentration at which average optical density was below optical density value set for turbidity threshold (Table 4). Amiodarone and propranolol were used as low and high solubility controls respectively.

Where [10] appears, read: SKBR3 cells, 6 days incubation, mean of IC50 values.
Where [11] appears, read: HT29 cells, 6 days incubation, mean of IC50 values.
Where [12] appears, read: NCI-H292 cells, 6 days incubation, mean of IC50 values.
The mark [13] stands for this setting: MCF7 cells, 6 days incubation, mean of IC50 values.
The mark [14] stands for this setting: NCI-N87 cells, 6 days incubation, mean of IC50 values.
The mark [15] stands for this setting: FaDu cells, 6 days incubation, mean of IC50 values.
Where [16] appears, read: SKOV3 cells, 6 days incubation, mean of IC50 values.
[17] abbreviates: BXPC3 cells, 6 days incubation, mean of IC50 values.

The IC50 is the point on the concentration scale where inhibition reaches its midpoint. In the case of `CC[C@@]1(O)C(=O)OCc2c1cc1n(c2=O)Cc2c-1nc1cc(F)c(C)c3c1c2[C@@H](NC(=O)C12CC(O)(C1)C2)CC3` [Compound 79], the IC50 in [1] (Homo sapiens, SK-BR-3, 144 h) is 5.9 nM; in [2] (Homo sapiens, HT-29, 144 h), 31.7 nM; in [3] (Homo sapiens, NCI-H292, 144 h) it was 14 nM; in series [4] (Homo sapiens, MCF7, 144 h) it was 9.8 nM; in [5] (Homo sapiens, NCI-N87, 144 h) it was 15.5 nM; in series [6] (Homo sapiens, FaDu, 144 h) it was 2.3 nM. Moreover, the IC50 is 25.3 nM in series [7] (Homo sapiens, SK-OV-3, 144 h) and 5.5 nM in series [8] (Homo sapiens, BXPC-3, 144 h).

As usually defined, the solubility is how much of the substance goes into solution per volume. A high value points to a readily soluble substance. Take `CC[C@@]1(O)C(=O)OCc2c1cc1n(c2=O)Cc2c-1nc1cc(F)c(C)c3c1c2[C@@H](NC(=O)c1cn(CCO)nn1)CC3` [Compound 52]: in [9], the solubility at 30 min amounted to 25 µM (≈ 14.4 µg/mL). For the same compound, the IC50 turned out to be 2.5 nM in series [1] (Homo sapiens, SK-BR-3, 144 h); 23.3 nM in [2] (Homo sapiens, HT-29, 144 h); 6.8 nM in series [3] (Homo sapiens, NCI-H292, 144 h); 5.9 nM in series [4] (Homo sapiens, MCF7, 144 h); 10.1 nM in series [5] (Homo sapiens, NCI-N87, 144 h); 4.2 nM in series [6] (Homo sapiens, FaDu, 144 h). For the same compound, the IC50 in series [7] (Homo sapiens, SK-OV-3, 144 h) was 12.9 nM; in series [8] (Homo sapiens, BXPC-3, 144 h), 3.4 nM.

On to `CC[C@@]1(O)C(=O)OCc2c1cc1n(c2=O)Cc2c-1nc1cc(F)c(C)c3c1c2[C@@H](NC(=O)CO)CC3` [DXD], for which the IC50 was determined as 1.3 nM in [1] (setting [10]); 6.9 nM in [2] (setting [11]); 3.8 nM in [3] (setting [12]); 2.7 nM in [4] (setting [13]); 4.7 nM in series [5] (setting [14]); 0.9 nM in series [6] (setting [15]). Besides, the figures for the IC50 in series [7] (setting [16]) and in series [8] (setting [17]) were 8.6 nM and 2.3 nM, respectively.

As for `CC[C@@]1(O)C(=O)OCc2c1cc1n(c2=O)Cc2c-1nc1cc(F)c(C)c3c1c2[C@@H](NC(=O)NCCO)CC3` [Compound 42], the concentration in solution in series [9] (solubility at 30 min) was 8 µM (≈ 4.18 µg/mL). For the same compound, the IC50 in series [1] (Homo sapiens, SK-BR-3, 144 h) is 5.2 nM; in series [2] (Homo sapiens, HT-29, 144 h), 10.2 nM; in [3] (Homo sapiens, NCI-H292, 144 h), 2.4 nM; in [4] (Homo sapiens, MCF7, 144 h), 11.8 nM; in series [5] (Homo sapiens, NCI-N87, 144 h), 12 nM; in [6] (Homo sapiens, FaDu, 144 h) it was 2.9 nM. Further, the IC50 in [7] (Homo sapiens, SK-OV-3, 144 h) worked out at 19.5 nM; in [8] (Homo sapiens, BXPC-3, 144 h), 5.6 nM.

In [9], `CC[C@@]1(O)C(=O)OCc2c1cc1n(c2=S)Cc2c-1nc1cc(F)c(C)c3c1c2[C@@H](NC(=S)CO)CC3` [Compound 148] came in with a solubility at 30 min of 3 µM (≈ 1.58 µg/mL). In addition, the IC50 in series [1] (Homo sapiens, SK-BR-3, 144 h) stood at 0.3 nM; in series [2] (Homo sapiens, HT-29, 144 h) it was 0.9 nM; in series [3] (Homo sapiens, NCI-H292, 144 h) it was 1.1 nM; in series [4] (Homo sapiens, MCF7, 144 h), 0.1 nM; in [5] (Homo sapiens, NCI-N87, 144 h), 0.2 nM; in series [7] (Homo sapiens, SK-OV-3, 144 h), 0.2 nM. The IC50 in series [8] (Homo sapiens, BXPC-3, 144 h) is 0.1 nM.

As for `CC[C@@]1(O)C(=O)OCc2c1cc1n(c2=O)Cc2c-1nc1cc(F)c(C)c3c1c2[C@@H](NC(=O)CCC(=O)NC(CO)(CO)CO)CC3` [Compound 122], the IC50 is 657 nM in series [1] (Homo sapiens, SK-BR-3, 144 h); 3400 nM in series [2] (Homo sapiens, HT-29, 144 h); 1020 nM in series [3] (Homo sapiens, NCI-H292, 144 h); 205 nM in [4] (Homo sapiens, MCF7, 144 h); 2700 nM in series [5] (Homo sapiens, NCI-N87, 144 h); 121 nM in series [6] (Homo sapiens, FaDu, 144 h). Also, the IC50 in series [7] (Homo sapiens, SK-OV-3, 144 h) came out at 819 nM; in series [8] (Homo sapiens, BXPC-3, 144 h), 227 nM.

With SN-38, the IC50 turned out to be 1.8 nM in [1] (setting [10]); 5.1 nM in series [2] (setting [11]); 2.5 nM in series [3] (setting [12]); 4.3 nM in series [4] (setting [13]); 4.2 nM in [5] (setting [14]); 2.2 nM in series [6] (setting [15]). In addition, the IC50 in [7] (setting [16]) came to 3.2 nM; in series [8] (setting [17]) it was 0.5 nM.
